Experiment: Release of lidocaine dissolved in oil through the silicone balloon wall of device 20
Format: physicochemical
Description: Experiments were performed using Lidocaine dissolved in oily substances using two different expansion volumes (one with 10 ml, the other with 16 ml) of the balloon of the device 20.
A. The balloon was expanded by injection of 10 ml of the oily solution into the balloon. A series of 4 experiments using lidocaine dissolved in oil was performed. The results were as follows: • 1. After 28 days—436 mg out of 500 mg was released. • 2. After 29 days—all the 500 mg was released (out of 500 mg). • 3. After 22 days—all the 500 mg was released (out of 500 mg). • 4. After 63 days—all the 1000 mg was released (out of 1000 mg).
B. The balloon was expanded by injection of 16 ml of the oily solution into the balloon. 2 groups and a series of 3 experiments using lidocaine dissolved in oil were performed. The results were as follows: • 1. After 21 days: —all the 500 mg was released (out of 500 mg) • […] was released, out of 1000 mg • 1086 mg was released, out of […] • 2. After 84 days—all the 500 mg was released (out of 500 mg) • all the 1000 mg was released (out of 1000 mg) • all the 1500 mg was released (out of 1500 mg)

In the case of CCN(CC)CC(=O)Nc1c(C)cccc1C [Lidocaine], the “release through the silicone balloon wall” value (Lidocaine dissolved in oily substances, balloon expansion volumes 10 ml and 16 ml) is reported as “released in large quantities”, the amount released (balloon expanded with 10 ml oily solution, experiment 1, after 28 days, out of 500 mg) is reported as 436 mg and the amount released (balloon expanded with 10 ml oily solution, experiment 2, after 29 days, out of 500 mg) is reported as 500 mg. For the same molecule, the amount released (balloon expanded with 10 ml oily solution, experiment 3, after 22 days, out of 500 mg) was 500 mg, the amount released (balloon expanded with 10 ml oily solution, experiment 4, after 63 days, out of 1000 mg) was 1000 mg and the amount released (balloon expanded with 16 ml oily solution, after 21 days, out of 500 mg) was 500 mg. For the same molecule, the amount released (balloon expanded with 16 ml oily solution, after 21 days, out of 1500 g) was 1086 mg, the amount released (balloon expanded with 16 ml oily solution, after 84 days, out of 500 mg) was 500 mg and the amount released (balloon expanded with 16 ml oily solution, after 84 days, out of 1000 mg) was 1000 mg. The amount released (balloon expanded with 16 ml oily solution, after 84 days, out of 1500 mg) was 1500 mg.
